For one assay, the target named is T1, CDK2 (Homo sapiens, UniProt P24941).
T1 construct: endogenous in cells; host or cells: MDA-MB-231
Put plainly: CDK protein degradation activity (Western blotting), CDK2. It counts as cell-based. The note with it: MDA-MB-231 cells, 16 hours, Western blot. In a few lines:
(§1)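 Protein levels were read by Western blot densitometry, tubulin serving as loading reference. Beforehand, MDA-MB-231 cells had been exposed for 16 hours to 100 nM, 1 μM or 10 μM compound, DMSO as control.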
For orientation: Immunoblotting shows a protein as a band on a membrane.

Another assay addresses T2, CDK9 (Homo sapiens, UniProt P50750).
T2 construct: endogenous in cells; host or cells: MDA-MB-231
Put plainly: CDK protein degradation activity (Western blotting), CDK9. It counts as cell-based. The conditions noted are these: MDA-MB-231 cells, 16 hours, Western blot. In a few lines: as §1

T2 sequence (P50750 whole entry): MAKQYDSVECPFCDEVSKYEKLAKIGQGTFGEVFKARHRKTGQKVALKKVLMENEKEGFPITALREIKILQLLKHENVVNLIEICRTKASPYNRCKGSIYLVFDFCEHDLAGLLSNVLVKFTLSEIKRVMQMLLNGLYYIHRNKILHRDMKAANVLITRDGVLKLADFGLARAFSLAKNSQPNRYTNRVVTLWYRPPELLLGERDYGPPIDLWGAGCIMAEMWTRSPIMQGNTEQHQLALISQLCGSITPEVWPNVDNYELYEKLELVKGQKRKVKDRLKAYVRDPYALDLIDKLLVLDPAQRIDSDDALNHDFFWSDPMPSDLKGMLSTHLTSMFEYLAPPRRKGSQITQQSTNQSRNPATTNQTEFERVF

For `O=C1CC[C@H](N2C(=O)c3cccc(NCC(=O)N4CCN(CC5CCN(c6ccc(Nc7ncnc8c7ncn8[C@H]7C[C@@H](NC(=O)Cc8ccccc8)C7)cc6)CC5)CC4)c3C2=O)C(=O)N1` [Compound 322, N-((1s,3s)-3-(6-((4-(4-((4-((2-(2,6-dioxopiperidin-3-yl)-1,3-dioxoisoindolin-4-yl)glycyl)piperazin-1-yl)methyl)piperidin-1-yl)phenyl)amino)-9H-purin-9-yl)cyclobutyl)-2-phenylacetamide], on CDK2, the “Enzyme degradation CDK2 (% remaining) @ 0.1 μM” value turned out to be 20%, the “Enzyme degradation CDK2 (% remaining) @ 1 μM” value came out at 10% and the “Enzyme degradation CDK2 (% remaining) @ 10 μM” value is listed as 20%. Besides, at CDK9, the “Enzyme degradation CDK9 (% remaining) @ 0.1 μM” value turned out to be 20%, the “Enzyme degradation CDK9 (% remaining) @ 1 μM” value is recorded as 10% and the “Enzyme degradation CDK9 (% remaining) @ 10 μM” value amounted to 20%.

`O=C1CC[C@H](N2C(=O)c3cc(F)c(N4CCC(CCN5CCN(c6ccc(Nc7ncnc8c7ncn8C7CC(NC(=O)Cc8ccccc8)C7)cc6)CC5)CC4)cc3C2=O)C(=O)N1` (stereo partly drawn) [Compound 323, N-((1s,3s)-3-(6-((4-(4-(2-(1-(2-(2,6-dioxopiperidin-3-yl)-6-fluoro-1,3-dioxoisoindolin-5-yl)piperidin-4-yl)ethyl)piperazin-1-yl)phenyl)amino)-9H-purin-9-yl)cyclobutyl)-2-phenylacetamide]: at CDK2, the “Enzyme degradation CDK2 (% remaining) @ 0.1 μM” value came out at 60%, the “Enzyme degradation CDK2 (% remaining) @ 1 μM” value turned out to be 50% and the “Enzyme degradation CDK2 (% remaining) @ 10 μM” value is listed as 40%. In addition, at CDK9, the “Enzyme degradation CDK9 (% remaining) @ 0.1 μM” value is on record as 0/0/0%, the “Enzyme degradation CDK9 (% remaining) @ 1 μM” value is listed as 0/0/0% and the “Enzyme degradation CDK9 (% remaining) @ 10 μM” value was 0/0/0%.

As to `O=C1CC[C@H](n2nnc3ccc(N4CCC(CCN5CCN(c6ccc(Nc7ncnc8c7ncn8C7CC(NC(=O)Cc8ccccc8)C7)cc6)CC5)CC4)cc3c2=O)C(=O)N1` (stereo partly drawn) [Compound 324, N-((1s,3s)-3-(6-((4-(4-(2-(1-(3-(2,6-dioxopiperidin-3-yl)-4-oxo-3,4-dihydrobenzo[d][1,2,3]triazin-6-yl)piperidin-4-yl)ethyl)piperazin-1-yl)phenyl)amino)-9H-purin-9-yl)cyclobutyl)-2-phenylacetamide], at CDK2, the “Enzyme degradation CDK2 (% remaining) @ 0.1 μM” value turned out to be 70%, the “Enzyme degradation CDK2 (% remaining) @ 1 μM” value is 80% and the “Enzyme degradation CDK2 (% remaining) @ 10 μM” value was 10%. In addition, at CDK9, the “Enzyme degradation CDK9 (% remaining) @ 0.1 μM” value is listed as 0/0/0%, the “Enzyme degradation CDK9 (% remaining) @ 1 μM” value is reported as 0/0/0% and the “Enzyme degradation CDK9 (% remaining) @ 10 μM” value is given as 0/0/0%.

On to `O=C1CC[C@H](N2C(=O)c3ccc(OCC(=O)N4CCN(CC5CCN(c6ccc(Nc7ncnc8c7ncn8C7CC(NC(=O)c8c(Cl)cccc8Cl)C7)cc6)CC5)CC4)cc3C2=O)C(=O)N1` (stereo partly drawn) [Compound 325, 2,6-dichloro-N-((1s,3s)-3-(6-((4-(4-((4-(2-((2-(2,6-dioxopiperidin-3-yl)-1,3-dioxoisoindolin-5-yl)oxy)acetyl)piperazin-1-yl)methyl)piperidin-1-yl)phenyl)amino)-9H-purin-9-yl)cyclobutyl)benzamide], for which, at CDK2, the “Enzyme degradation CDK2 (% remaining) @ 0.1 μM” value was 40%, the “Enzyme degradation CDK2 (% remaining) @ 1 μM” value amounted to 60% and the “Enzyme degradation CDK2 (% remaining) @ 10 μM” value came to 60%. Besides, on CDK9, the “Enzyme degradation CDK9 (% remaining) @ 0.1 μM” value worked out at 80%, the “Enzyme degradation CDK9 (% remaining) @ 1 μM” value is recorded as 0% and the “Enzyme degradation CDK9 (% remaining) @ 10 μM” value came to 0%.

As for `O=C1CC[C@H](N2C(=O)c3cccc(OCC(=O)N4CCN(CC5CCN(c6ccc(Nc7ncnc8c7ncn8C7CC(NC(=O)Cc8ccccc8)C7)cc6)CC5)CC4)c3C2=O)C(=O)N1` (stereo partly drawn) [Compound 326, N-((1s,3s)-3-(6-((4-(4-((4-(2-((2-(2,6-dioxopiperidin-3-yl)-1,3-dioxoisoindolin-4-yl)oxy)acetyl)piperazin-1-yl)methyl)piperidin-1-yl)phenyl)amino)-9H-purin-9-yl)cyclobutyl)-2-phenylacetamide], at CDK2, the “Enzyme degradation CDK2 (% remaining) @ 0.1 μM” value is on record as 20%, the “Enzyme degradation CDK2 (% remaining) @ 1 μM” value came to 0% and the “Enzyme degradation CDK2 (% remaining) @ 10 μM” value is 0%. On CDK9, the “Enzyme degradation CDK9 (% remaining) @ 0.1 μM” value was 80%, the “Enzyme degradation CDK9 (% remaining) @ 1 μM” value is recorded as 10% and the “Enzyme degradation CDK9 (% remaining) @ 10 μM” value is recorded as 0%.

Consider `O=C1CCC(N2C(=O)c3ccc(N4CCC(CCN5CCN(c6ccc(Nc7ncnc8c7ncn8[C@H]7C[C@@H](NC(=O)Cc8ccccc8)C7)cc6)CC5)CC4)cc3C2=O)C(=O)N1` (stereo partly drawn) [Compound 327, N-((1s,3s)-3-(6-((4-(4-(2-(1-(2-(2,6-dioxopiperidin-3-yl)-1,3-dioxoisoindolin-5-yl)piperidin-4-yl)ethyl)piperazin-1-yl)phenyl)amino)-9H-purin-9-yl)cyclobutyl)-2-phenylacetamide], for which, at CDK2, the “Enzyme degradation CDK2 (% remaining) @ 0.1 μM” value amounted to 20%, the “Enzyme degradation CDK2 (% remaining) @ 1 μM” value was determined as 0% and the “Enzyme degradation CDK2 (% remaining) @ 10 μM” value amounted to 0%. On CDK9, the “Enzyme degradation CDK9 (% remaining) @ 0.1 μM” value is on record as 0/0/0%, the “Enzyme degradation CDK9 (% remaining) @ 1 μM” value is 0/0/0% and the “Enzyme degradation CDK9 (% remaining) @ 10 μM” value is listed as 0/0/0%.

As to `O=C1CC[C@H](N2C(=O)c3ccc(N4CC(C(=O)N5CCC(CCN6CCN(c7ccc(Nc8ncnc9c8ncn9C8CC(NC(=O)Cc9ccccc9)C8)cc7)CC6)CC5)C4)cc3C2=O)C(=O)N1` (stereo partly drawn) [Compound 328, N-((1s,3s)-3-(6-((4-(4-(2-(1-(1-(2-(2,6-dioxopiperidin-3-yl)-1,3-dioxoisoindolin-5-yl)azetidin-3-carbonyl)piperidin-4-yl)ethyl)piperazin-1-yl)phenyl)amino)-9H-purin-9-yl)cyclobutyl)-2-phenylacetamide], at CDK2, the “Enzyme degradation CDK2 (% remaining) @ 0.1 μM” value is listed as 40%, the “Enzyme degradation CDK2 (% remaining) @ 1 μM” value turned out to be 50% and the “Enzyme degradation CDK2 (% remaining) @ 10 μM” value stood at 40%. Besides, on CDK9, the “Enzyme degradation CDK9 (% remaining) @ 0.1 μM” value is given as 0/0/0%, the “Enzyme degradation CDK9 (% remaining) @ 1 μM” value is 0/0/0% and the “Enzyme degradation CDK9 (% remaining) @ 10 μM” value is listed as 0/0/0%.

Turning to `O=C1CC[C@H](N2C(=O)c3ccc(N4CC(C(=O)N5CCC(CN6CCN(c7ccc(Nc8ncnc9c8ncn9C8CC(NC(=O)Cc9ccccc9)C8)cc7)CC6)CC5)C4)cc3C2=O)C(=O)N1` (stereo partly drawn) [Compound 329, N-((1s,3s)-3-(6-((4-(4-((1-(1-(2-(2,6-dioxopiperidin-3-yl)-1,3-dioxoisoindolin-5-yl)azetidin-3-carbonyl)piperidin-4-yl)methyl)piperazin-1-yl)phenyl)amino)-9H-purin-9-yl)cyclobutyl)-2-phenylacetamide], on CDK2, the “Enzyme degradation CDK2 (% remaining) @ 0.1 μM” value is reported as 50%, the “Enzyme degradation CDK2 (% remaining) @ 1 μM” value came to 50% and the “Enzyme degradation CDK2 (% remaining) @ 10 μM” value turned out to be 60%. In addition, on CDK9, the “Enzyme degradation CDK9 (% remaining) @ 0.1 μM” value is recorded as 10%, the “Enzyme degradation CDK9 (% remaining) @ 1 μM” value stood at 0% and the “Enzyme degradation CDK9 (% remaining) @ 10 μM” value was 0%.

Regarding `O=C1CC[C@H](N2C(=O)c3ccc(N4CCC(C(=O)N5CCC(CN6CCN(c7ccc(Nc8ncnc9c8ncn9C8CC(NC(=O)Cc9ccccc9)C8)cc7)CC6)CC5)CC4)cc3C2=O)C(=O)N1` (stereo partly drawn) [Compound 330, N-((1s,3s)-3-(6-((4-(4-((1-(1-(2-(2,6-dioxopiperidin-3-yl)-1,3-dioxoisoindolin-5-yl)piperidin-4-carbonyl)piperidin-4-yl)methyl)piperazin-1-yl)phenyl)amino)-9H-purin-9-yl)cyclobutyl)-2-phenylacetamide], on CDK2, the “Enzyme degradation CDK2 (% remaining) @ 0.1 μM” value worked out at 60%, the “Enzyme degradation CDK2 (% remaining) @ 1 μM” value turned out to be 60% and the “Enzyme degradation CDK2 (% remaining) @ 10 μM” value stood at 40%. Also, at CDK9, the “Enzyme degradation CDK9 (% remaining) @ 0.1 μM” value was 0/0/0%, the “Enzyme degradation CDK9 (% remaining) @ 1 μM” value is recorded as 0/0/0% and the “Enzyme degradation CDK9 (% remaining) @ 10 μM” value is reported as 0/0/0%.

As to `O=C1CC[C@H](N2C(=O)c3ccc(N4CC(C(=O)N5CCN(CC6CCN(c7ccc(Nc8ncnc9c8ncn9C8CC(NC(=O)Cc9ccccc9)C8)cc7)CC6)CC5)C4)cc3C2=O)C(=O)N1` (stereo partly drawn) [Compound 331, N-((1s,3s)-3-(6-((4-(4-((4-(1-(2-(2,6-dioxopiperidin-3-yl)-1,3-dioxoisoindolin-5-yl)azetidin-3-carbonyl)piperazin-1-yl)methyl)piperidin-1-yl)phenyl)amino)-9H-purin-9-yl)cyclobutyl)-2-phenylacetamide], at CDK2, the “Enzyme degradation CDK2 (% remaining) @ 0.1 μM” value was found to be 50%, the “Enzyme degradation CDK2 (% remaining) @ 1 μM” value was determined as 30% and the “Enzyme degradation CDK2 (% remaining) @ 10 μM” value is given as 30%. At CDK9, the “Enzyme degradation CDK9 (% remaining) @ 0.1 μM” value is 30%, the “Enzyme degradation CDK9 (% remaining) @ 1 μM” value turned out to be 10% and the “Enzyme degradation CDK9 (% remaining) @ 10 μM” value came to 0%.

On to `O=C1CCC(N2C(=O)c3cc(F)c(N4CCC(N5CCN(c6ccc(Nc7ncnc8c7ncn8[C@H]7C[C@@H](NC(=O)Cc8ccccc8)C7)cc6)CC5)CC4)cc3C2=O)C(=O)N1` (stereo partly drawn) [Compound 333, N-((1s,3s)-3-(6-((4-(4-(1-(2-(2,6-dioxopiperidin-3-yl)-6-fluoro-1,3-dioxoisoindolin-5-yl)piperidin-4-yl)piperazin-1-yl)phenyl)amino)-9H-purin-9-yl)cyclobutyl)-2-phenylacetamide], for which, at CDK2, the “Enzyme degradation CDK2 (% remaining) @ 0.1 μM” value stood at 50%, the “Enzyme degradation CDK2 (% remaining) @ 1 μM” value was found to be 10% and the “Enzyme degradation CDK2 (% remaining) @ 10 μM” value is recorded as 10%. Also, at CDK9, the “Enzyme degradation CDK9 (% remaining) @ 0.1 μM” value turned out to be 50%, the “Enzyme degradation CDK9 (% remaining) @ 1 μM” value is reported as 0% and the “Enzyme degradation CDK9 (% remaining) @ 10 μM” value was determined as 0%.

For the origin of these results see US20260125382A1, “COMPOUNDS FOR INHIBITING OR DEGRADING CDK2 AND/OR CDK9 AND MEDICINAL USE THEREOF” (KOREA RESEARCH INSTITUTE OF CHEMICAL TECHNOLOGY, priority 2022, published 2026).
